The results in this text go back to patent US20240415790A1, “A COMPOSITION FOR USE IN THE TREATMENT OF INTERVERTEBRAL DISC HERNIATION” (STAYBLE THERAPEUTICS AB, priority 2020, published 2024).

Experiment [1] deals with porcine lumbar spine (L3/4 IVD). Put plainly: Flexural rigidity of the isolated porcine lumbar spine after intradiscal LA (series 1). The format is in vivo, pig. To be noted: 28 days. As for the experimental part:
The pigs were pre-medicated by intramuscular injection of dexmedetomidin (Domitor®vet, Orion Pharma, Sollentuna, Sweden) and a commercial mixture of zolazepam and tiletamine (Zoletil®vet 100, Virbac, Carros, France) in conventional doses. Anesthesia was maintained by buprenophine ([…], Orion Pharma) 0.03 mg/kg intramuscularly, carpofen (Rimadyl®vet, Orion Pharma) 4 mg/kg intravenously and isoflurane ([…] Pharma AB, Stockholm, Sweden) using a Servo 900 respirator (Siemens, Munich, Germany). Before recovering from anesthesia, atipamezol (Antisedan®vet, Orion Pharma) was given intramuscularly. On the first three days after surgery the pigs received oral carprofen 2 mg/kg twice daily. The pigs were placed on the right side. […] The concentration was determined based on the pilot experiments on the effects of LA on collagen secretion from human NP cells (as described in WO 2017/046030). […] The height and width of normally appearing NP (FIG. 6a) in the anteroposterior (short vertical double arrow) and bilateral (short horizontal double arrow) directions, respectively, were measured and expressed in relation to the height (long vertical double arrow), and width (long horizontal double arrow) of the IVD. […] The distances between the lateral processes of the vertebrae cranially and caudally to the injected IVD was measured with a caliper at full ipsi- or contralateral flexion. […]

For another experiment, the system named is porcine IVD. Put plainly: T2-weighted MRI and photographs of porcine IVD after LA (series 3), disc height and width. Format: in vivo. To be noted: pig. As for the experimental part: Since effects of LA on the NP in the subsequent clinical study was planned to be assessed using MRI, the third series focused on the effects of LA (0.2 mL, 60 mg/mL) on sclerotization as measured by T2-weighted MRI. In addition, effects of LA on the expression of collagen I and II were studied by immunohistochemistry (IHC). […] MR images were obtained using a 7T small animal MRI system (Bruker Biospec). A single 50 mm volume coil array was used (Tx/Rx). The dissected spines were stripped of the attached muscles, the spinous processes, transverse processes, and posterior aspects of the facet joints to allow them to fit in the MRI system. T2-weighted (TR: 2500-2834 ms, TE: 33-35.84 ms), 2D TurboRARE transversal and sagittal sequences were used. The TR and TE could not be maintained the same for all sequences due to required adjustments in field of view the different specimens, leading to an increased pixel matrix which affected the TR and TE. For the transverse sequences, a 500 μm slice thickness with 750 μm interslice distance and an in-plane resolution of 166×166 μm was used. For the sagittal sequences, a 750 μm slice thickness with 2000 μm interslice distance and an in-place resolution of 166×166 μm was used. […] Images were analyzed using Sante DICOM Viewer (version 8.1.5, Santesoft, Athens, Greece). The treated IVDs in all animals were assessed, and the IVD one level above the treated IVD was scanned as control. The size of the NP was quantified using both MR images and photographs of the IVDs (see FIG. 6). The results from the macroscopic and MR analyses were then correlated. […] The relative disc height was expressed as a ratio of height of treated IVD/height of untreated (control) IVD. Analogously, the relative disc width was expressed as a ratio of width of treated IVD/width of untreated (control) IVD.

Setting [2] is: individual animals 1-5, LA 0.2 mL 60 mg/mL.
Where [3] appears, read: mean of 5 animals, LA 0.2 mL 60 mg/mL.

Structures are written as SMILES. Values joined by “and” are separate entries in the source; they are usually repeats but may differ in a detail not shown here. Equal values may be shown once.

For the compound `CC(O)C(=O)O` (centres unmarked) [LA, lactic acid], in experiment [1] (pig L3/4 IVD, 0.2 mL LA 120 mg/mL intradiscal, n=6, difference of process distances at full flexion (lower = stiffer)), the “Flexural rigidity (mm, mean ± SD)” value is recorded as 2.7 ± 1.1 mm. In addition, the “Flexural rigidity, LA- vs placebo-injected and naive IVDs” value in experiment [1] (pig, LA 120 mg/mL) was “marked difference in flexural rigidity”. Also, the “Height of the treated IVD on MR image (FIG. 12)” value with porcine IVD (60 mg/ml LA, 30 days prior to the image, vs untreated control IVD) is given as “significant reduction in height”. Besides, the “T2-weighted MRI intensity of the sclerotized NP” value in the experiment with porcine IVD (LA 60 mg/mL) is recorded as “much lower”. For the same compound, in the experiment on porcine IVD (setting [2]), the “Relative disc height (treated IVD/untreated control IVD)” value is 0.55 and 0.2 and 0.33 and 0.7 and 0.36; the “Relative disc width (treated IVD/untreated control IVD)” value was 1 and 1.01 and 0.99 (2×) and 1.04. In addition, in the experiment with porcine IVD (setting [3]), the “Relative disc height, mean value” came to 0.43 and the “Relative disc width, mean value” was 1.01.
